Laboratory results: patent US20120122931A1, “INDOLE DERIVATIVE OR PHARMACEUTICALLY ACCEPTABLE SALT THEREOF” (KISSEI PHARMACEUTICAL CO., LTD., priority 2009, published 2012)
“And” between values parts separate entries of the source, which are not always exact repeats. Equal entries are not always repeated.

biological target: T1, rat EP1 receptor (Rattus norvegicus, UniProt P70597); test: Test for confirmation of EP1 receptor antagonism: inhibition of prostaglandin E2-induced increase in intracellular calcium concentration (Method A or Method B); format: cell-based; settings: Method A (Fluo-4 NW, FlexStation); rat EP1 receptor-expressing cells; prostaglandin E2 10 nM
T1 construct: expressed in transfected cells; host or cells: COS-1 cells, transient transfection with Lipofectamine 2000
T1 sequence (P70597 1-405): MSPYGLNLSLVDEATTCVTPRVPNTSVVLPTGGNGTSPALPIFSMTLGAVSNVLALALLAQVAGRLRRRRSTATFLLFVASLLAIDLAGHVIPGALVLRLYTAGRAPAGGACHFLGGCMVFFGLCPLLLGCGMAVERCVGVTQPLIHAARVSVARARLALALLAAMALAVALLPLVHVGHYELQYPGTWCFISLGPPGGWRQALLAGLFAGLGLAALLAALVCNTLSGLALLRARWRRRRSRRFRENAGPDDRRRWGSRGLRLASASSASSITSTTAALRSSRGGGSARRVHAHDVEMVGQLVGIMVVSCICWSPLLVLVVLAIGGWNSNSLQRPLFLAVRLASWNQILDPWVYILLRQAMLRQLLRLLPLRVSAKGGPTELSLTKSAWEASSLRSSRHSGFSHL
Description: (1) Preparation of Rat EP1 Expression vector
Using Rat Kidney BD Marathon-Ready cDNA (Nippon Becton Dickinson Company, Ltd.) as a template, a forward primer shown in SEQ ID NO. 1, and a reverse primer shown in SEQ ID NO. 2, a first run of PCR was carried out using KOD-Plus-Ver 2.0 (Toyobo Co., Ltd.). Further, using this amplification product as a template, a forward primer shown in SEQ ID NO. 3, and a reverse primer shown in SEQ ID NO. 4, a second run of PCR was carried out in the same manner. The amplification product obtained by the second run of PCR was incorporated into a vector (pcDNA3.1 D/V5-His-TOPO (registered trademark), Invitrogen Japan K. K.). By a conventional method, the vector containing this amplification product was introduced to E. coli (One Shot TOP10 Competent Cells, Invitrogen Corporation) to transform. This transformed E. coli was cultured in an LB agar medium for one day. After the culture, colonies were selected and cultured in an LB liquid medium containing 50 μg/mL of ampicillin. After the culture, the vector was purified using a QIAprep Spin Miniprep Kit (Qiagen K. K.). The base sequence of the insertion site of this vector (SEQ ID NO. 5) was compared with the rat EP1 base sequence (Ptger1) registered as an accession number NM_013100 in well-known database (NCBI), and as a result, they all matched except for a single base. Further, the amino acid sequence translated by the base sequence completely matched the amino acid sequence of the rat EP1 receptor registered as an NCBI accession number NP_037232. Therefore, it was confirmed that the cloned gene sequence was a base sequence of the rat EP1 receptor and the obtained amino acid sequence was that of the rat EP1 receptor. The pcDNA3.1 D/V5-His-TOPO (registered trademark) to which the nucleic acid shown in SEQ ID NO. 5 had been inserted was taken as a rat EP1-expressing vector.
(2) Preparation of Rat EP1 Receptor-Expressing Cells
COS-1 cells (Dainippon Sumitomo Pharma Co., Ltd.) were cultured until it reached confluence in an incubator at 37° C. under a 5% CO2 gas condition, using a D-MEM liquid medium (high glucose and L-glutamine contained, Invitrogen Corporation) to which a penicillin-streptomycin solution (Invitrogen Corporation, final concentration: 100 U/mL as benzylpenicillin; 100 μg/mL as streptomycin) as an antibiotic, MEM nonessential amino acids (Invitrogen Corporation, final Concentration: 0.1 mM), and fetal calf serum (Sanko Junyaku Co., Ltd., final concentration: 10%) were added.
(2-2) COS-1 Cell Subculture
The cells that had reached confluence were stripped with 0.05% trypsin/0.53 mM EDTA 4Na (Invitrogen Japan K. K.) and resuspended in the above liquid medium. The resuspended cells were diluted and cultured in the above liquid medium at a spread ratio from 1:4 to 1:8.
(2-3) Preparation of Cells for Introduction of Rat EP1-Expressing Vector
The cells that had reached confluence were stripped with 0.05% trypsin/0.53 mM EDTA.4Na, and resuspended in a D-MEM liquid medium (high glucose and L-glutamine contained, Invitrogen Corporation) to which an MEM nonessential amino acid (final concentration: 0.1 mM) and fetal calf serum (final concentration: 10%) were added. In each well of a Poly D-lysine-coated 96-well microplate (BD BioCoat (registered trademark), Nippon Becton Dickinson Company, Ltd.), this resuspended cell suspension culture was prepared to be 5×10^4 cells/well in 100 μL of the liquid medium, and seeded thereon. After seeding, the cells were cultured in an incubator at 37° C. under a 5% CO2 gas condition. At a point when the cells for introduction of a rat EP1-expressing vector were adhered (about 2 hours after seeding), introduction of the rat EP1-expressing vector was carried out in the following order.
(2-4) Introduction of Rat EP1-Expressing Vector
For introduction of the rat EP1-expressing vector, Lipofectamine 2000 (Invitrogen Japan K. K.) was used. […]

| Structure (SMILES) | IC50 [nM] |
| --- | --- |
| O=C(O)c1cccc(Cc2c(-c3ccccc3)[nH]c3cc(C(F)(F)F)ccc23)n1 [Example 11-3] | 42 |

same assay, conditions: Method B (Calcium kit II Fluo 4, FDSS 7000); rat EP1 receptor-expressing cells; prostaglandin E2 10 nM

| Structure (SMILES) | IC50 |
| --- | --- |
| COc1cc2[nH]c(-c3ccccc3)c(Cc3cccc(C(=O)O)n3)c2cc1Cl [Example 16-13, 6-(5-chloro-6-methoxy-2-phenyl-1H-indol-3-ylmethyl)pyridine-2-carboxylic acid] | 36 nM |
| Cc1cc2c(Cc3cccc(C(=O)O)n3)c(-c3ccccc3)[nH]c2cc1C1CC1 [Example 16-100, 6-(6-cyclopropyl-5-methyl-2-phenyl-1H-indol-3-ylmethyl)pyridine-2-carboxylic acid] | 44 nM and 26 nM |
| COc1ccc2c(Cc3nc(C(=O)O)cs3)c(-c3ccccc3)[nH]c2c1 [Example 11-37] | 50 nM |
| CCOc1cc2[nH]c(-c3ccsc3)c(Cc3cccc(C(=O)O)n3)c2cc1C [Example 16-93, 6-(6-ethoxy-5-methyl-2-thiophen-3-yl-1H-indol-3-ylmethyl)pyridine-2-carboxylic acid] | 46 nM |
| CCOc1cc2[nH]c(-c3ccccc3)c(Cc3cccc(C(=O)O)n3)c2cc1C [Example 16-84, 6-(6-ethoxy-5-methyl-2-phenyl-1H-indol-3-ylmethyl)pyridine-2-carboxylic acid] | 17 nM |
| CC(C)Cc1cn(-c2cccc(C(=O)O)n2)c2cc(Cl)ccc12 [Comparative Example, sodium 6-(6-chloro-3-isobutylindol-1-yl)pyridine-2-carboxylate, reference compound] | 476 nM |
| Cc1cc2[nH]c(-c3ccccc3)c(Cc3cccc(C(=O)O)n3)c2cc1F [Example 16-53, 6-(5-fluoro-6-methyl-2-phenyl-1H-indol-3-ylmethyl)pyridine-2-carboxylic acid] | 31 nM |
| O=C(O)c1cccc(Cc2c(-c3ccsc3)[nH]c3cc(Cl)c(F)cc23)n1 [Example 16-52, 6-(6-chloro-5-fluoro-2-thiophen-3-yl-1H-indol-3-ylmethyl)pyridine-2-carboxylic acid] | 43 nM |
| COc1cc2[nH]c(-c3ccccc3)c(Cc3cccc(C(=O)O)n3)c2cc1F [Example 16-16, 6-(5-fluoro-6-methoxy-2-phenyl-1H-indol-3-ylmethyl)pyridine-2-carboxylic acid] | 25 nM |
| COc1cc2[nH]c(-c3ccc(F)cc3)c(Cc3cccc(C(=O)O)n3)c2cc1C [Example 16-85, 6-[2-(4-fluorophenyl)-6-methoxy-5-methyl-1H-indol-3-ylmethyl]pyridine-2-carboxylic acid] | 18 nM |
| COc1cc2[nH]c(C(C)C)c(Cc3cccc(C(=O)O)n3)c2cc1F [Example 18-1, 6-(5-fluoro-2-isopropyl-6-methoxy-1H-indol-3-ylmethyl)pyridine-2-carboxylic acid] | 39 nM |
| CCC(C)c1[nH]c2cc(OC)c(Cl)cc2c1Cc1cccc(C(=O)O)n1 (stereo not shown) [Example 16-107, 6-(2-sec-butyl-5-chloro-6-methoxy-1H-indol-3-ylmethyl)pyridine-2-carboxylic acid] | 40 nM |
| O=C(O)c1cccc(Cc2c(-c3ccc(F)cc3)[nH]c3cc(C4CC4)c(F)cc23)n1 [Example 16-74, 6-[6-cyclopropyl-5-fluoro-2-(4-fluorophenyl)-1H-indol-3-ylmethyl]pyridine-2-carboxylic acid] | 47 nM |
| Cc1ccc2c(Cc3cccc(C(=O)O)n3)c(-c3ccc(F)cc3)[nH]c2c1 [Example 16-48, 6-[2-(4-fluorophenyl)-6-methyl-1H-indol-3-ylmethyl]pyridine-2-carboxylic acid] | 27 nM |
| COc1ccc2c(Cc3cccc(C(=O)O)n3)c(-c3ccc(F)c(F)c3)[nH]c2c1 [Example 16-2, 6-[2-(3,4-difluorophenyl)-6-methoxy-1H-indol-3-ylmethyl]pyridine-2-carboxylic acid] | 23 nM |
| O=C(O)c1cccc(Cc2c(-c3ccccc3)[nH]c3cc(C4CC4)c(F)cc23)n1 [Example 16-68, 6-(6-cyclopropyl-5-fluoro-2-phenyl-1H-indol-3-ylmethyl)pyridine-2-carboxylic acid] | 34 nM |
| O=C(O)c1cccc(Cc2c(-c3ccc(F)cc3)[nH]c3cc(C4CC4)ccc23)n1 [Example 16-62, 6-[6-cyclopropyl-2-(4-fluorophenyl)-1H-indol-3-ylmethyl]pyridine-2-carboxylic acid] | 27 nM |
| COc1ccc2c(Cc3cccc(C(=O)O)c3F)c(-c3ccccc3)[nH]c2c1 [Example 16-9, 2-fluoro-3-(6-methoxy-2-phenyl-1H-indol-3-ylmethyl)benzoic acid] | 41 nM |

The next lines start with the values.

| IC50 | Structure (SMILES) |
| --- | --- |
| 30 nM | COc1ccc2c(Cc3ccc(F)c(C(=O)O)c3)c(-c3ccccc3)[nH]c2c1 [Example 16-18, 2-fluoro-5-(6-methoxy-2-phenyl-1H-indol-3-ylmethyl)benzoic acid] |
| 30 nM | COc1cc2[nH]c(-c3ccsc3)c(Cc3cccc(C(=O)O)n3)c2cc1F [Example 16-28, 6-(5-fluoro-6-methoxy-2-thiophen-3-yl-1H-indol-3-ylmethyl)pyridine-2-carboxylic acid] |
| 31 nM | COc1ccc2c(Cc3cccc(C(=O)O)n3)c(-c3ccc(F)cc3)[nH]c2c1 [Example 11-13, 6-[2-(4-fluorophenyl)-6-methoxy-1H-indol-3-ylmethyl]pyridine-2-carboxylic acid] |
| 30 nM | COc1cc2[nH]c(-c3cccnc3)c(Cc3cccc(C(=O)O)n3)c2cc1C [Example 16-66, 6-(6-methoxy-5-methyl-2-pyridin-3-yl-1H-indol-3-ylmethyl)pyridine-2-carboxylic acid] |
| 19 nM | COc1cc2c(Cc3cccc(C(=O)O)n3)c(-c3ccsc3)[nH]c2cc1C [Example 16-108, 6-(5-methoxy-6-methyl-2-thiophen-3-yl-1H-indol-3-ylmethyl)pyridine-2-carboxylic acid] |
| 48 nM | COc1ccc2c(Cc3cccc(C(=O)O)c3)c(-c3ccoc3)[nH]c2c1 [Example 11-15, 3-(2-furan-3-yl-6-methoxy-1H-indol-3-ylmethyl)benzoic acid] |
| 20 nM | O=C(O)c1cccc(Cc2c(-c3cccnc3)[nH]c3cc(C4CC4)c(F)cc23)n1 [Example 16-76, 6-(6-cyclopropyl-5-fluoro-2-pyridine-3-yl-1H-indol-3-ylmethyl)pyridine-2-carboxylic acid] |
| 50 nM | COc1ccc2c(Cc3cccc(C(=O)O)n3)c(-c3cccs3)[nH]c2c1 [Example 11-17, 6-(6-methoxy-2-thiophen-2-yl-1H-indol-3-ylmethyl)pyridine-2-carboxylic acid] |
| 11 nM | Cc1cc2[nH]c(-c3ccccc3)c(Cc3cccc(C(=O)O)n3)c2cc1C [Example 16-44, 6-(5,6-dimethyl-2-phenyl-1H-indol-3-ylmethyl)pyridine-2-carboxylic acid] |
